| SMILES | melting point [°C] |
| --- | --- |
| CCOC(=O)[C@@]12C=C[C@H]([C@@H]3OC(C)(C)O[C@@H]31)N(C(C)=O)O2 | 89 to 90 |
| CCOC(=O)C1=CC=C[C@H](O)[C@@H]1O | 48 |
| CCOC(=O)C1C[C@@H](OS(C)(=O)=O)[C@@H](NC(C)=O)[C@@H]2OC(C)(C)O[C@H]12 (stereo partly drawn) | 101 to 102 |
| CC(=O)N[C@H]1C=C(Br)[C@H]2OC(C)(C)O[C@H]2[C@@H]1Br | 181 |
| CCOC(=O)C1C[C@@H](O)[C@@H](NC(C)=O)[C@@H]2OC(C)(C)O[C@H]12 (stereo partly drawn) | 156 to 158 |
| CCOC(=O)C1=C[C@@H](OC(CC)CC)[C@H](NC(C)=O)[C@@H]2OC(C)(C)O[C@H]12 | 112 to 115 |
| CCOC(=O)C1=C[C@@H](OS(C)(=O)=O)[C@@H](NC(C)=O)[C@@H]2OC(C)(C)O[C@H]12 | 163 to 165 |
| CC(=O)N1[C@@H]2[C@@H]3OC(C)(C)O[C@@H]3C(Br)=C[C@@H]21 | 128 |
| CCOC(=O)C1=C[C@@H](OC(CC)CC)[C@H](NC(C)=O)[C@H](O)[C@@H]1O (stereo in doubt) | 154 |
| Cc1ccc(S(=O)(=O)N[C@H]2[C@@H]3OC(C)(C)O[C@@H]3C(Br)=C[C@H]2NC(=O)OC(C)(C)C)cc1 | 153 to 154 |
| CCOC(=O)C1=C[C@@H]2[C@H]([C@@H]3OC(C)(C)O[C@H]13)N2S(=O)(=O)c1ccc(C)cc1 (stereo partly drawn) | 106 to 107 |
| Cc1ccc(S(=O)(=O)N[C@H]2[C@@H]3OC(C)(C)O[C@@H]3C(Br)=C[C@H]2N=[N+]=[N-])cc1 | 119 to 120 |
